In patent publication US7862798B2, “Vitamin-targeted imaging agents” (Endocyte, Inc., priority 2002, dated 2011):

Experiments:
[1] = Radiochemical stability by HPLC; assay type: physicochemical; details: room temperature, protected from light, at least 24 hours
Description: The radiochemical stability of the radioactive drug substance was determined by HPLC after storing at room temperature protected from light for up to 24 hours. Samples of the ^99mTc-EC20 solution (20 μL) were analyzed using an HPLC system consisting of a Waters 600E Multisolvent Delivery System and 490 UV detector, a Bioscan EC-3200 radiodetector, Laura v1.5 radiochromatogram software, and a Waters Nova-Pak C18 (3.9×150 mm) column. Injected samples were eluted isocratically using an aqueous mobile phase containing 20% methanol and 0.1% trifluoroacetic acid at a flow rate of 1 mL/min. The HPLC analysis was monitored with both the UV detector (280 nm) and the gamma radiodetector.

[2] = test system: FR-positive M109 and FR-negative 4T1 tumors; test: Tissue distribution, M109 and 4T1 tumor models (Example 15); assay type: in vivo, Balb/c mice; details: four hours post i.v. injection
Description: The protocols used in this example are similar to those described in Example 11.
Syngeneic, FR-positive M109 tumor cells (2×10^6 Po per animal) or FR-negative 4T1 cells (5×10^5 Po per animal) were inoculated subcutaneously in 100 μl of folate-free RPMI-1640 containing 1% syngeneic mouse serum.
Sixteen days after tumor cell inoculation, the animals were injected intravenously with 500 or 1800 nmoles/kg of EC20 for M109 tumor-bearing animals and 500 nmoles/kg of EC20 for 4T1 tumor-bearing animals (3 mice per dose group). All injections were in 100 μl volumes. […] Selected tissues (heart, lungs, liver, spleen, kidney, intestines, stomach, muscle, and tumor) were removed, weighed, and counted in an automatic gamma counter to determine ^99mTc distribution. Uptake of the radiopharmaceutical in terms of percentage injected dose of wet weight tissue (% ID/g) was calculated by reference to standards prepared from dilutions of the injected preparation.

Blood clearance = assay type: in vivo, Balb/c mice
Description: Animals used for this study were maintained on a folate-free diet (Harlan #TD-90261) for approximately three weeks prior to dose administration. […] Furthermore, previous studies have shown that mice placed on a folate-free diet for 3 weeks had maintained a safe serum folate level of 25±7 nM, which is slightly higher than the 9-14 nM concentration measurable in human serum.
The ^99mTc-EC20 solution was prepared on the day of use and had initially contained 100 μg of EC20 per milliliter. The solution was further diluted with sterile saline to prepare working stock solutions. The radiochemical purity of the product was estimated to be ˜94% by TLC. Each animal received a dose of 50 μg/kg EC20 (67 nmol/kg) in approximately 0.1 mL volume i.v. via the tail vein during brief diethyl ether anesthesia. At the designated times (see FIG. 8) post-injection, each animal was euthanized by CO2 asphyxiation, and blood was immediately collected by cardiac puncture.

[3] = biological target: T1, folate receptor (FR) on KB cells (Homo sapiens, UniProt P15328); test: Concentration-dependent cell uptake (Scatchard analysis); assay type: binding; details: 2 hours at 37° C.
T1 construct: FR-positive KB cells were gently trypsinized; endogenous in cells; host or cells: KB cells
Description: KB cells were seeded in 12-well Falcon plates and allowed to form sub-confluent monolayers overnight. Following one rinse with 1 mL of fresh FERPMI/HIFCS, each well received 1 mL of FFRPMI/HIFCS containing increasing concentrations of ^99mTc-EC20. Cells were incubated for 2 hours at 37° C. and then rinsed four times with 1 mL of ice-cold PBS, pH 7.4. The monolayers were dissolved in 0.5 mL of PBS, pH 7.4 containing 1% sodium dodecyl sulfate for 15 min at room temperature and then counted for radioactivity using a Packard gamma counter. Protein content was determined as described above, and final tabulated values were expressed in terms of molecules of EC20 per cell.
The particular KB cells used were determined to bind a maximum of four million molecules of the folate radiopharmaceutical per cell.
This HPLC-purified radiolabeled material (Peak B material) was collected and then added to cultured KB cells.

[4] = Serum protein binding (ultrafiltration), rat serum; assay type: in vitro ADME; details: room temperature, ultrafiltration 30,000 NMWL
Description: Fresh rat serum, and commercial male human serum (type AB donors, Sigma Chemical Co.) were used to evaluate in vitro binding of ^99mTc˜EC20 to serum proteins. One minute after ^99mTc-EC20 was mixed with 1 mL of serum at room temperature, 0.3 mL of the serum solution was transferred to a clean Amicon Centrifree® ultrafiltration device (30,000 NMWL) in triplicate. Within one minute of loading the centrifuge with the serum solution, the device was spun at 1000×g for 20 minutes at 20° C. 50 μL samples of the original solution, and of the filtrate from each device, was transferred to a clean tube and counted in an automatic gamma counter. A control solution of ^99mTc˜EC20 mixed with 1 mL of normal saline was ultrafiltered in an identical fashion. The percentage of free ^99mTc was calculated for each of the three samples.

T1 sequence (P15328 25-234): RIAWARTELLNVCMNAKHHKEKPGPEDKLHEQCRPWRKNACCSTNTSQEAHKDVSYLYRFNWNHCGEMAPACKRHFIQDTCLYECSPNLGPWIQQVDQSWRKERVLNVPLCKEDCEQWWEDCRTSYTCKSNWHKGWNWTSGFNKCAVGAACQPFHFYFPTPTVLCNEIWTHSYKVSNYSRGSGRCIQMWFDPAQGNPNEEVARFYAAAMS

## [NH-][C@@H](CNC(=O)CC[C@@H](NC(=O)c1ccc(NCc2cnc3nc(N)[nH]c(=O)c3n2)cc1)C(=O)O)C(=O)[N-][C@@H](CC(=O)O)C(=O)[N-][C@@H](C[S-])C(=O)O.[O]=[Tc+4] [^99mTc-EC20]
[1]
  radiochemical purity on storage: greater than 90%
[2]
  uptake in FR-negative 4T1 tumors lower than in FR-positive M109 tumors: 7.6 fold
  uptake in normal tissues, except kidney: low
Blood clearance; 50 μg/kg EC20 i.v., Balb/c mouse
  plasma half life: ~4 min
Blood clearance; after four hours, blood assumed 5.5% of body mass
  injected dose remaining in circulation: less than 0.2%
[3]
  maximum molecules bound per cell: four million
[3]; read-out: KD of binding (Scatchard analysis)
  Kd: 3.2 nM
[4]
  associated with the >30 kDa serum protein fraction: 69%
